Results: patent US20130030007A1, “Obesity Small Molecules” (AKRON MOLECULES GMBH, priority 2010, published 2013)
Where two headings read alike, the source gives them in different places.

Legend:
hedgehog pathway = assay type: cell-based
[1] = cited from earlier work
[2] = cited from earlier work; remark: listed apart in the source
[3] = human, in vivo, po; cited from earlier work
[4] = administered orally; cited from earlier work
[5] = system: human ortholog of Drosophila obesity gene; test: Table 1: type of interaction of small molecule with therapeutic target gene; parameters: key: O: Obesity - obesity pathway interaction; B: validated binding partner
C57BL6/J DIO mice [6] = test: Body weight of diet-induced obese mice under daily compound administration; assay type: in vivo, mouse
Method: FIG. 9. Loss of weight in Vandetanib administered mice. C57BL6/J DIO mice were administered 40/mg/kg/day by oral gavage. The mice were weighed daily and the values were expressed as a percentage of the starting weight (day 1). […] Error bars represent standard error of the mean.
FIG. 13. Loss of weight in dasatininb administered mice. C57BL6/J DIO mice were administered 5/mg/kg/day for 27 days. The mice were weighed daily and the values were expressed as a percentage of the starting weight (day 1). […] Error bars represent standard error of the mean.
General preferred layout: The mice were divided into cages of 2-4 mice per cage and allowed to acclimatise to the new housing conditions for at least 2 weeks. The mice were weighed every week to monitor their weight and ensure that the mice are either gaining weight or stabilized prior to initiation of the experiment. Mice were randomly assigned to weight-matched groups for compound administration. Compound dosage and routes of administration were determined based on published literature and pharmacokinetic studies. […]
The dose of Vandetanib chosen for this study was 40 mg/kg/d. This has been determined to be an effective dose for the inhibition of the target VEGFR in various mouse cancer models. […] The mice were weighed on a daily basis during the experiment and monitored for overt signs of toxicity or stress. […]

C57BL6/J DIO mice [7] = system: C57BL6/J DIO mice
[8] = system: human ortholog of Drosophila obesity gene; parameters: key: O: Obesity - obesity pathway interaction; B: validated binding partner; settings: cited from earlier work
renal cell carcinoma = settings: 50 mg/kg for 21 days; cited from earlier work
[9] = system: human Adenoid Cycstic Carcinoma; settings: 50 mg/kg/d oral gavage for 4 weeks; cited from earlier work
tumour growth = settings: up to 100 mg/kg in mice for 35 days; cited from earlier work
[10] = interaction of the small molecule with the human ortholog(s) / Drosophila gene(s) listed in the same table line

CNC1CCC(N(Cc2cccc(-c3ccncc3)c2)C(=O)c2sc3ccccc3c2Cl)CC1 (centres unmarked) [SAG]
hedgehog pathway activation (target genes Gli1 and Ptch1) (hedgehog pathway): activation

CCC(=O)O[C@]1(C(=O)SCF)[C@H](C)C[C@H]2[C@@H]3C[C@H](F)C4=CC(=O)C=C[C@]4(C)[C@@]3(F)[C@@H](O)C[C@@]21C [fluticasone propionate]
acute toxic effects ([1]; human, in vivo, po): no acute toxic effects reported | tolerability ([1]; intranasal 2 mg twice daily for 7 days, healthy human volunteers): well tolerated | tolerability ([1]; repeat oral doses up to 80 mg daily for 10 days in volunteers, up to 10 mg daily for 14 days in patients): well tolerated

C=CCNC1=C2C[C@@H](C)C[C@H](OC)[C@H](O)[C@@H](C)/C=C(\C)[C@H](OC(N)=O)[C@@H](OC)/C=C\C=C(/C)C(=O)NC(=CC1=O)C2=O [Tanespimycin, 17-allylamino-demethoxygeldamycin]
water solubility [2]: water insoluble

CNC(=O)c1cc(Oc2ccc(NC(=O)Nc3ccc(Cl)c(C(F)(F)F)c3)cc2)ccn1 [Sorafenib]
maximum tolerated dose in humans [3]: 400 mg | half life [4]: 25 to 48 h

O=C(/C=C/c1ccccc1)NC(NC(=S)Nc1cccc2cccnc12)C(Cl)(Cl)Cl (centres unmarked) [salubrinal]
Type: Type of interaction [5]: B

Cc1nc(Nc2ncc(C(=O)Nc3c(C)cccc3Cl)s2)cc(N2CCN(CCO)CC2)n1 [Dasatinib]
average loss of starting weight (C57BL6/J DIO mice [6]; 5 mg/kg/day intraperitoneally, by day 28): 20% | tolerability / adverse side effects (C57BL6/J DIO mice [7]; mouse, in vivo, ip, 5 mg/kg/day): well tolerated during the course of the study and no adverse side effects were observed

O=c1c2ccccc2nc2n1CCc1c-2[nH]c2ccccc12 [rutecarpine]
Type: Type of interaction [5]: B

O=C1C[C@@H](c2ccc(O[C@@H]3O[C@H](CO)[C@@H](O)[C@H](O)[C@H]3O)cc2)Oc2cc(O)ccc21 [liquiritin]
Type: Type of interaction [5]: O

C[C@@H](O)[C@@H]1NC(=O)[C@H](CCCCN)NC(=O)[C@@H](Cc2c[nH]c3ccccc23)NC(=O)[C@H](Cc2ccccc2)NC(=O)[C@@H](NC(=O)[C@H](N)Cc2ccccc2)CSSC[C@@H](C(=O)N[C@H](CO)[C@@H](C)O)NC1=O [Octreotide]
Type: Type of interaction [8]: B and O

pegvisomant
Type: Type of interaction [8]: O

COc1ccc(-c2cc(=O)c3c(OC)c(OC)c(OC)c(OC)c3o2)cc1OC [Nobiletin]
Type: Type of interaction [8, 10]: O

C[C@]12CCC(=O)C=C1CC[C@@H]1[C@@H]2[C@@H](O)C[C@@]2(C)[C@H]1CC[C@]2(O)C(=O)CO [Optef]
Type: Type of interaction [8]: O

O=c1c(O)c(-c2ccc(O)cc2O)oc2cc(O)cc(O)c12 [MORIN]
Type: Type of interaction [8, 10]: O

COc1cc2c(Nc3ccc(Br)cc3F)ncnc2cc1OCC1CCN(C)CC1 [Vandetanib]
tolerability (renal cell carcinoma): well tolerated with no drug related changes in weight or behaviour observed | reduction of body weight (C57BL6/J DIO mice [6]; 40 mg/kg/d oral gavage, stabilized over the course of the experiment): ~10% | tolerability [9]: well tolerated by the mice and no adverse side effects or loss in body weight was observed | effect on clinical condition (tumour growth): no obvious effect on clinical condition | maximum tolerated dose in humans [3]: 300 mg | tolerability / adverse side effects (C57BL6/J DIO mice [7]; DIO mice, 40 mg/kg/d oral gavage, course of the study): well tolerated during the course of the study and no adverse side effects were observed

O=C1C[C@@H](c2ccc(O)cc2)Oc2cc(O)cc(O)c21 [NARIGENIN]
Type: Type of interaction [8, 10]: O

LY 303511
Type: Type of interaction [8]: O

COc1ccc(-c2cc(=O)c3c(OC)c(OC)c(OC)c(OC)c3o2)cc1 [Tangeretin]
Type: Type of interaction [5]: B

NCCC(O)(P(=O)(O)O)P(=O)(O)O [pamidronate]
Type: Type of interaction [8, 10]: B

CC1(C)CCC[C@](C)([C@H]2CC[C@]3(C)[C@@H]2[C@H](O)C[C@@H]2[C@@]4(C)CC[C@H](O)C(C)(C)[C@@H]4CC[C@]23C)O1 [panaxadiol]
Type: Type of interaction [8, 10]: B

CCOc1cc(N)c(Cl)cc1C(=O)NCC1CN(Cc2ccc(F)cc2)CCO1 (centres unmarked) [mosapride]
Type: Type of interaction [8, 10]: O

O=C1CC(=O)N(c2ccccc2)c2cc(Cl)ccc2N1 [N-desmethylclobazam]
Type: Type of interaction [8]: B

CN[C@@H](C)Cc1ccccc1 [Meth]
Type: Type of interaction [8]: O

CCCOC(C(=O)OC1CCN(C)CC1)(c1ccccc1)c1ccccc1 [Mictonorm]
Type: Type of interaction [8]: B

CN1C(C(=O)Nc2ccccn2)=C(O)c2ccccc2S1(=O)=O [Piroxicam]
Type: Type of interaction [8, 10]: B

CCCC(C(=O)OCCN(CC)CC)(c1ccccc1)c1ccccc1 [Proadifen]
Type: Type of interaction [8, 10]: O

CC(C)c1cccc(C(C)C)c1O [Propofol]
Type: Type of interaction [8]: B

CC(C)[C@H]1CC[C@H](C(=O)N[C@H](Cc2ccccc2)C(=O)O)CC1 [nateglinide]
Type: Type of interaction [8, 10]: O

CCC1(c2ccccc2)NC(=O)N(C)C1=O (centres unmarked) [Mephenytoin]
Type: Type of interaction [8, 10]: B

O=C(c1ccc(OCCN2CCCCC2)cc1)c1c(-c2ccc(O)cc2)sc2cc(O)ccc12 [Raloxifene]
Type: Type of interaction [8, 10]: B

C#CCOc1ccccc1CCCCCC(=O)NS(C)(=O)=O [N-methylsulfonyl-6-(2-propargyloxyphenyl)hexanamide]
Type: Type of interaction [8, 10]: O

O=C(O[C@@H]1Cc2c(O)cc(O)cc2O[C@@H]1c1ccc(O)c(O)c1)c1cc(O)c(O)c(O)c1 [epicatechin gallate]
Type: Type of interaction [5]: B

Cc1nccn1CC1CCc2c(c3ccccc3n2C)C1=O (centres unmarked) [Ondansetron]
Type: Type of interaction [8, 10]: O

CCCCC[C@H](O)/C=C/[C@H]1C(=O)C[C@H](O)[C@@H]1C/C=C\CCCC(=O)O [prostaglandin D2]
Type: Type of interaction [8]: B

CCCCC[C@H](O)/C=C/[C@H]1[C@H](O)CC(=O)[C@@H]1CCCCCCC(=O)O [prostaglandin E1]
Type: Type of interaction [8]: O

O=c1[nH]c2ccccc2n1CCCN1CCN(C(c2ccccc2)c2ccccc2)CC1 [oxatomide]
Type: Type of interaction [8, 10]: B
